Assay results: PubChem BioAssay (NCI)
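Interpolation was linear, between the two tested concentrations surrounding the appropriate level; five concentrations were tested over 48 hours in 96-well plates. TGI: total growth inhibition.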

How the values were obtained:
Test in all cases: NCI tumour cell line growth inhibition, 48 h
[1] = tested on: 786-0 renal
[2] = tested on: A498 renal
[3] = tested on: A549 NSCLC
[4] = tested on: ACHN renal
[5] = tested on: BT-549 breast
[6] = tested on: CAKI-1 renal
[7] = tested on: CCRF-CEM leukemia
[8] = tested on: COLO 205 colon
[9] = tested on: DU-145 prostate
[10] = tested on: EKVX NSCLC
[11] = tested on: HCT-116 colon
[12] = tested on: HCT-15 colon
[13] = tested on: HL-60(TB) leukemia
[14] = tested on: HOP-62 NSCLC
[15] = tested on: HOP-92 NSCLC
[16] = tested on: HS 578T breast
[17] = tested on: HT29 colon
[18] = tested on: IGROV1 ovarian
[19] = tested on: K-562 leukemia
[20] = tested on: LOX IMVI melanoma
[21] = tested on: M14 melanoma
[22] = tested on: MALME-3M melanoma
[23] = tested on: MCF7 breast
[24] = tested on: MDA-MB-231 breast
[25] = tested on: MDA-MB-435
[26] = tested on: MDA-N
[27] = tested on: MOLT-4 leukemia
[28] = tested on: NCI-H226 lung
[29] = tested on: NCI-H23 lung
[30] = tested on: NCI/ADR-RES ovarian
[31] = tested on: OVCAR-3 ovarian
[32] = tested on: OVCAR-4 ovarian
[33] = tested on: OVCAR-5 ovarian
[34] = tested on: OVCAR-8 ovarian
[35] = tested on: PC-3 prostate
[36] = tested on: RPMI-8226 leukemia
[37] = tested on: RXF 393 renal
[38] = tested on: SF-268 CNS
[39] = tested on: SF-295 CNS
[40] = tested on: SF-539 CNS
[41] = tested on: SK-MEL-2 melanoma
[42] = tested on: SK-MEL-28 melanoma
[43] = tested on: SK-MEL-5 melanoma
[44] = tested on: SK-OV-3 ovarian
[45] = tested on: SN12C renal
[46] = tested on: SNB-19 CNS
[47] = tested on: SNB-75 CNS
[48] = tested on: SR leukemia
[49] = tested on: T-47D breast
[50] = tested on: TK-10 renal
[51] = tested on: U251 CNS
[52] = tested on: UACC-257 melanoma
[53] = tested on: UACC-62 melanoma
[54] = tested on: UO-31 renal
[55] = tested on: KM12 colon
[56] = tested on: NCI-H460 lung
[57] = tested on: SW-620 colon
[58] = tested on: HCC-2998 colon

For CN(C)C=Nc1ccc2[nH]c3ccccc3c2c1, the TGI [1] was 70 µM, the TGI [2] was 60.1 µM and the TGI [3] was greater than 100 µM. The TGI [4] was greater than 100 µM, the TGI [5] was greater than 100 µM and the TGI [6] was greater than 100 µM. For the same molecule, the TGI [7] was greater than 100 µM, the TGI [8] was 30.2 µM and the TGI [9] was greater than 100 µM. For the same molecule, the TGI [10] was greater than 100 µM, the TGI [11] was greater than 100 µM and the TGI [12] was 46.5 µM. The TGI [13] was 41.7 µM, the TGI [14] was 57.7 µM and the TGI [15] was 39 µM. It also gave a TGI [16] greater than 100 µM, a TGI [17] of 43.8 µM and a TGI [18] greater than 100 µM. It also gave a TGI [19] of 43.4 µM, a TGI [20] of 34.2 µM and a TGI [21] of 29.1 µM. For the same molecule, the TGI [22] was 54.7 µM, the TGI [23] was greater than 100 µM and the TGI [24] was 43.1 µM. For the same molecule, the TGI [25] was 33.9 µM, the TGI [26] was 33 µM and the TGI [27] was 83.3 µM. The TGI [28] was 84 µM, the TGI [29] was greater than 100 µM and the TGI [30] was greater than 100 µM. It also gave a TGI [31] greater than 100 µM, a TGI [32] greater than 100 µM and a TGI [33] of 96.5 µM. For the same molecule, the TGI [34] was greater than 100 µM, the TGI [35] was greater than 100 µM and the TGI [36] was 60.4 µM. It also gave a TGI [37] of 79 µM, a TGI [38] greater than 100 µM and a TGI [39] greater than 100 µM. For the same molecule, the TGI [40] was 50.5 µM, the TGI [41] was 35.3 µM and the TGI [42] was 40 µM. It also gave a TGI [43] of 30.4 µM, a TGI [44] greater than 100 µM and a TGI [45] greater than 100 µM. For the same molecule, the TGI [46] was greater than 100 µM, the TGI [47] was greater than 100 µM and the TGI [48] was 41 µM. It also gave a TGI [49] of 97.7 µM, a TGI [50] of 86.2 µM and a TGI [51] of 68.6 µM. It also gave a TGI [52] of 30.3 µM, a TGI [53] of 40.6 µM and a TGI [54] of 88.1 µM.

Molecule O=C(N/S(=N/S(=O)(=O)c1ccc(Br)cc1)C(Cl)(Cl)Cl)c1ccccc1 (stereo not given) has a TGI [1] greater than 100 µM, a TGI [2] greater than 100 µM and a TGI [3] greater than 100 µM. The TGI [4] was greater than 100 µM, the TGI [5] was greater than 100 µM and the TGI [7] was greater than 100 µM. The TGI [8] was greater than 100 µM, the TGI [9] was greater than 100 µM and the TGI [10] was greater than 100 µM. The TGI [11] was greater than 100 µM, the TGI [12] was greater than 100 µM and the TGI [14] was greater than 100 µM. For the same molecule, the TGI [15] was 82 µM, the TGI [16] was greater than 100 µM and the TGI [17] was greater than 100 µM. The TGI [18] was greater than 100 µM, the TGI [19] was greater than 100 µM and the TGI [55] was greater than 100 µM. The TGI [20] was greater than 100 µM, the TGI [21] was greater than 100 µM and the TGI [22] was greater than 100 µM. The TGI [23] was greater than 100 µM, the TGI [24] was greater than 100 µM and the TGI [25] was greater than 100 µM. For the same molecule, the TGI [26] was greater than 100 µM, the TGI [27] was greater than 100 µM and the TGI [28] was greater than 100 µM. The TGI [29] was greater than 100 µM, the TGI [56] was greater than 100 µM and the TGI [30] was greater than 100 µM. It also gave a TGI [31] greater than 100 µM, a TGI [32] greater than 100 µM and a TGI [33] greater than 100 µM. For the same molecule, the TGI [34] was greater than 100 µM, the TGI [35] was greater than 100 µM and the TGI [36] was greater than 100 µM. The TGI [37] was greater than 100 µM, the TGI [38] was greater than 100 µM and the TGI [39] was greater than 100 µM. For the same molecule, the TGI [40] was greater than 100 µM, the TGI [41] was greater than 100 µM and the TGI [42] was greater than 100 µM. For the same molecule, the TGI [43] was greater than 100 µM, the TGI [44] was greater than 100 µM and the TGI [45] was greater than 100 µM. For the same molecule, the TGI [46] was greater than 100 µM, the TGI [47] was greater than 100 µM and the TGI [48] was greater than 100 µM. For the same molecule, the TGI [57] was greater than 100 µM, the TGI [49] was greater than 100 µM and the TGI [50] was greater than 100 µM. It also gave a TGI [51] greater than 100 µM, a TGI [52] greater than 100 µM and a TGI [53] greater than 100 µM. The TGI [54] was greater than 100 µM.

CCCc1c(Cl)nc(Cl)nc1Cl showed a TGI [1] of 11.2 µM, a TGI [2] of 34.7 µM and a TGI [3] of 24.6 µM. The TGI [4] was 10.7 µM, the TGI [5] was 4.37 µM and the TGI [7] was 0.0921 µM. The TGI [8] was 0.706 µM, the TGI [9] was 9.82 µM and the TGI [58] was 15.6 µM. For the same molecule, the TGI [11] was 22.8 µM, the TGI [12] was 3.71 µM and the TGI [13] was 3.01 µM. The TGI [14] was 7.79 µM, the TGI [15] was 11.9 µM and the TGI [16] was 27.6 µM. The TGI [17] was 4.02 µM, the TGI [18] was greater than 37.3 µM and the TGI [19] was 1.53 µM. For the same molecule, the TGI [55] was 15.8 µM, the TGI [20] was 0.461 µM and the TGI [21] was greater than 37.9 µM. The TGI [22] was 4.95 µM, the TGI [23] was 16.3 µM and the TGI [24] was 7.99 µM. It also gave a TGI [25] of 2.44 µM, a TGI [26] of 0.548 µM and a TGI [27] of 10.7 µM. It also gave a TGI [28] of 0.0913 µM, a TGI [29] of 4.3 µM and a TGI [56] of 12.7 µM. It also gave a TGI [30] of 7.53 µM, a TGI [31] of 5.46 µM and a TGI [32] of 26.3 µM. It also gave a TGI [33] of 17.5 µM, a TGI [34] greater than 19.9 µM and a TGI [35] of 28.6 µM. It also gave a TGI [36] greater than 33.1 µM, a TGI [37] of 4.93 µM and a TGI [38] greater than 68 µM. For the same molecule, the TGI [39] was 12.3 µM, the TGI [40] was 5.84 µM and the TGI [41] was 4.35 µM. The TGI [42] was 1.45 µM, the TGI [43] was 2.54 µM and the TGI [44] was greater than 100 µM. For the same molecule, the TGI [45] was 5.51 µM, the TGI [46] was 21.1 µM and the TGI [47] was 28.1 µM. For the same molecule, the TGI [48] was 2.15 µM, the TGI [57] was 12.7 µM and the TGI [49] was 11.7 µM. The TGI [50] was 18.5 µM, the TGI [51] was 7.95 µM and the TGI [52] was 11.1 µM. It also gave a TGI [53] greater than 100 µM and a TGI [54] greater than 55.4 µM.
